In the NIST ThermoML archive (doi:10.1021/acs.jced.8b00326):

Test: mn = molality of the nth substance listed, in mol/kg
Settings: 100 kPa, Liquid, Alternating current cell with electrodes

CCCCCCCCCCCCCCCC[n+]1ccccc1.[Cl-] [cetylpyridinium chloride] + O
electrical conductivity [S/m]
Settings	m1 = 0.0002	m1 = 0.0004	m1 = 0.0006	m1 = 0.0008	m1 = 0.001	m1 = 0.0012	m1 = 0.0014	m1 = 0.0016	m1 = 0.0018	m1 = 0.002
293.15 K	0.00277	0.00503	0.0073	0.00906	0.0102	0.0112	0.012	0.0128	0.0138	0.0145
298.15 K	0.00283	0.00513	0.00755	0.00982	0.0109	0.0118	0.0128	0.0139	0.0149	0.0158
303.15 K	0.00302	0.00574	0.00831	0.011	0.0134	0.0148	0.016	0.0172	0.0184	0.0194
308.15 K	0.00337	0.00645	0.00954	0.0126	0.0155	0.017	0.0183	0.0196	0.021	0.0223

O [water] + CCCCCCCCCCCCCCCC[n+]1ccccc1.[Cl-]
m2 = 0
Settings	electrical conductivity [S/m]
293.15 K	0.0005
298.15 K	0.00053
303.15 K	0.00057
308.15 K	0.00058
